According to paper PMC5218480 (PLoS ONE, 2017):

Test system: MV-4-11 cells
Assay: Gene expression microarray analysis (Affymetrix PrimeView) and GSEA
Format: cell-based, human
Set-up: RFU PODN (11730768_x_at) / Fold change /veh PODN (11730768_x_at) / RFU LINC00158 (11744669_a_at) / Fold change /veh LINC00158 (11744669_a_at) / RFU DUSP10 (11751237_a_at) / Fold change /veh DUSP10 (11751237_a_at) / RFU ID3 (11757404_x_at) / Fold change /veh ID3 (11757404_x_at) / RFU PLEKHG5 (11737974_s_at) / Fold change /veh PLEKHG5 (11737974_s_at) / RFU LRRC4B (11730491_at) / Fold change /veh LRRC4B (11730491_at) / RFU GIMAP4 (11747438_a_at) / Fold change /veh GIMAP4 (11747438_a_at) / RFU KRT8 (11758183_x_at) / Fold change /veh KRT8 (11758183_x_at) / RFU CNN1 (11734310_a_at) / Fold change /veh CNN1 (11734310_a_at) / RFU VPS37D (11726825_at) / Fold change /veh VPS37D (11726825_at) / RFU C10orf10 (11716522_x_at) / Fold change /veh C10orf10 (11716522_x_at) / RFU KIR2DL2 /// KIR2DL4 /// KIR2DL5A /// KIR2DL5B /// KIR2DS1 /// KIR2DS2 /// KIR2DS3 /// KIR2DS4 /// KIR3DL3 /// KIR3DL3 /// KIR3DS1 (11738374_at) / Fold change /veh KIR2DL2 /// KIR2DL4 /// KIR2DL5A /// KIR2DL5B /// KIR2DS1 /// KIR2DS2 /// KIR2DS3 /// KIR2DS4 /// KIR3DL3 /// KIR3DL3 /// KIR3DS1 (11738374_at) / RFU C1QL1 (11718748_at) / Fold change /veh C1QL1 (11718748_at) / RFU TMPRSS4 (11747572_a_at) / Fold change /veh TMPRSS4 (11747572_a_at) / RFU HAMP (11756126_x_at) / Fold change /veh HAMP (11756126_x_at) / RFU RNFT2 (11725882_a_at) / Fold change /veh RNFT2 (11725882_a_at) / RFU NR4A2 (11747474_a_at) / Fold change /veh NR4A2 (11747474_a_at) / RFU ABCC12 (11746883_a_at) / Fold change /veh ABCC12 (11746883_a_at) / RFU TMEM136 (11760407_x_at) / Fold change /veh TMEM136 (11760407_x_at) / RFU CLDN22 /// WWC2 (11732394_at) / Fold change /veh CLDN22 /// WWC2 (11732394_at) / RFU HLA-DPB1 (11760878_x_at) / Fold change /veh HLA-DPB1 (11760878_x_at) / RFU SPINT1 (11716480_a_at) / Fold change /veh SPINT1 (11716480_a_at) / RFU GAP43 (11754022_s_at) / Fold change /veh GAP43 (11754022_s_at) / RFU A4GNT (11735810_at) / Fold change /veh A4GNT (11735810_at) / RFU PRB3 (11715151_x_at) / Fold change /veh PRB3 (11715151_x_at) / RFU TUBB4B (11761932_at) / Fold change /veh TUBB4B (11761932_at) / RFU CAPN14 (11732068_a_at) / Fold change /veh CAPN14 (11732068_a_at) / RFU TMCC2 (11721928_a_at) / Fold change /veh TMCC2 (11721928_a_at) / RFU IRGQ (11745062_a_at) / Fold change /veh IRGQ (11745062_a_at) / RFU FAM174B (11720279_a_at) / Fold change /veh FAM174B (11720279_a_at) / RFU TMPRSS4 (11748680_a_at) / Fold change /veh TMPRSS4 (11748680_a_at) / RFU FAM212B (11763350_a_at) / Fold change /veh FAM212B (11763350_a_at) / RFU PLEKHG5 (11743358_a_at) / Fold change /veh PLEKHG5 (11743358_a_at) / RFU ZSCAN30 (11745921_a_at) / Fold change /veh ZSCAN30 (11745921_a_at) / RFU CMKLR1 (11741424_a_at) / Fold change /veh CMKLR1 (11741424_a_at) / RFU LOC101060620 /// MAPK8IP1 (11723275_at) / Fold change /veh LOC101060620 /// MAPK8IP1 (11723275_at) / RFU SPTSSB (11747773_x_at) / Fold change /veh SPTSSB (11747773_x_at) / RFU PRSS12 (11739890_at) / Fold change /veh PRSS12 (11739890_at) / RFU BIN1 (11741810_x_at) / Fold change /veh BIN1 (11741810_x_at) / RFU WNT11 (11732464_a_at) / Fold change /veh WNT11 (11732464_a_at) / RFU C10orf10 (11716521_a_at) / Fold change /veh C10orf10 (11716521_a_at) / RFU C5orf56 (11738089_at) / Fold change /veh C5orf56 (11738089_at) / RFU CYB561 (11721691_x_at) / Fold change /veh CYB561 (11721691_x_at) / RFU ANKRD19P (11752326_a_at) / Fold change /veh ANKRD19P (11752326_a_at) / RFU OR2T12 /// OR2T33 /// OR2T8 (11738714_s_at) / Fold change /veh OR2T12 /// OR2T33 /// OR2T8 (11738714_s_at) / RFU VCAN (11748164_a_at) / Fold change /veh VCAN (11748164_a_at) / RFU JSRP1 (11732532_at) / Fold change /veh JSRP1 (11732532_at) / RFU KRTAP10-11 (11738290_x_at) / Fold change /veh KRTAP10-11 (11738290_x_at) / RFU MYO3A (11730013_a_at) / Fold change /veh MYO3A (11730013_a_at) / RFU EBF3 (11725865_a_at) / Fold change /veh EBF3 (11725865_a_at) / RFU CAMK2N1 (11719241_x_at) / Fold change /veh CAMK2N1 (11719241_x_at) / RFU C5orf56 (11738088_a_at) / Fold change /veh C5orf56 (11738088_a_at) / RFU OLFML3 (11715873_a_at) / Fold change /veh OLFML3 (11715873_a_at) / RFU LOC100653217 /// NTM (11731650_a_at) / Fold change /veh LOC100653217 /// NTM (11731650_a_at) / RFU MAPK11 (11762145_a_at) / Fold change /veh MAPK11 (11762145_a_at) / RFU FIZ1 (11724087_x_at) / Fold change /veh FIZ1 (11724087_x_at) / RFU OASL (11726364_x_at) / Fold change /veh OASL (11726364_x_at) / RFU SOX15 (11748057_x_at) / Fold change /veh SOX15 (11748057_x_at) / RFU CD79A (11719716_a_at) / Fold change /veh CD79A (11719716_a_at) / RFU HIST1H1D (11736915_at) / Fold change /veh HIST1H1D (11736915_at) / RFU CASKIN2 (11723855_a_at) / Fold change /veh CASKIN2 (11723855_a_at) / RFU LOC730098 (11760151_x_at) / Fold change /veh LOC730098 (11760151_x_at) / RFU OR4N2 (11742367_at) / Fold change /veh OR4N2 (11742367_at) / RFU PRRT2 (11749266_a_at) / Fold change /veh PRRT2 (11749266_a_at) / RFU SNX32 (11753110_a_at) / Fold change /veh SNX32 (11753110_a_at) / RFU CDHR5 (11726645_a_at) / Fold change /veh CDHR5 (11726645_a_at) / RFU RCAN1 (11760418_a_at) / Fold change /veh RCAN1 (11760418_a_at) / RFU FAM167A (11723789_a_at) / Fold change /veh FAM167A (11723789_a_at) / RFU FAM26E (11764081_at) / Fold change /veh FAM26E (11764081_at) / RFU ISYNA1 (11749810_s_at) / Fold change /veh ISYNA1 (11749810_s_at) / RFU ACY1 (11761880_at) / Fold change /veh ACY1 (11761880_at) / RFU 11764098_at / Fold change /veh 11764098_at / RFU SAMD14 (11745864_x_at) / Fold change /veh SAMD14 (11745864_x_at) / RFU NPB (11741838_a_at) / Fold change /veh NPB (11741838_a_at) / RFU TMPRSS6 (11731388_a_at) / Fold change /veh TMPRSS6 (11731388_a_at) / RFU KRTAP10-2 (11738614_at) / Fold change /veh KRTAP10-2 (11738614_at) / RFU ARHGAP8 /// PRR5-ARHGAP8 (11727945_x_at) / Fold change /veh ARHGAP8 /// PRR5-ARHGAP8 (11727945_x_at) / RFU KRTAP5-7 /// NADSYN1 (11734609_at) / Fold change /veh KRTAP5-7 /// NADSYN1 (11734609_at) / RFU RASL12 (11751679_a_at) / Fold change /veh RASL12 (11751679_a_at) / RFU CDKN2B (11736163_a_at) / Fold change /veh CDKN2B (11736163_a_at) / RFU PRF1 (11729649_at) / Fold change /veh PRF1 (11729649_at) / RFU, ZNF638 /// ZNF638-IT1 / Fold change vs veh, ZNF638 /// ZNF638-IT1 / RFU, PANK3 / Fold change vs veh, PANK3 / RFU, SH3YL1 / Fold change vs veh, SH3YL1 / RFU, ZEB2 / Fold change vs veh, ZEB2 / RFU, NRIP1 / Fold change vs veh, NRIP1 / RFU, PTTG1IP / Fold change vs veh, PTTG1IP / RFU, CAPN2 / Fold change vs veh, CAPN2 / RFU, MED14 / Fold change vs veh, MED14 / RFU, SNORA58 / Fold change vs veh, SNORA58 / RFU, C1orf63 / Fold change vs veh, C1orf63 / RFU, LRRFIP1 / Fold change vs veh, LRRFIP1 / RFU, NDUFAF7 / Fold change vs veh, NDUFAF7 / RFU, SLC12A2 / Fold change vs veh, SLC12A2 / RFU, IBTK / Fold change vs veh, IBTK / RFU, ESF1 / Fold change vs veh, ESF1 / Fold change vs veh, TMEM50B / RFU, TAOK1 / Fold change vs veh, TAOK1 / RFU, ACBD3 / Fold change vs veh, ACBD3 / RFU, TMA16 / Fold change vs veh, TMA16 / RFU, RWDD3 / Fold change vs veh, RWDD3 / RFU, BCAT1 / Fold change vs veh, BCAT1 / RFU, EDEM3 / Fold change vs veh, EDEM3 / RFU, TMEM33 / Fold change vs veh, TMEM33 / RFU, WDR75 / Fold change vs veh, WDR75 / RFU, AHCTF1 / Fold change vs veh, AHCTF1 / RFU, TFRC / Fold change vs veh, TFRC / RFU, ZDHHC17 / Fold change vs veh, ZDHHC17 / RFU, NOM1 / Fold change vs veh, NOM1 / RFU, ARL8B / Fold change vs veh, ARL8B / RFU, ZBTB11 / Fold change vs veh, ZBTB11 / RFU, TAMM41 / Fold change vs veh, TAMM41 / RFU, KIAA1704 /// LOC100996395 / Fold change vs veh, KIAA1704 /// LOC100996395 / RFU, ING1 / Fold change vs veh, ING1 / RFU, TRMT61B / Fold change vs veh, TRMT61B / RFU, FUBP3 / Fold change vs veh, FUBP3 / RFU, TP53 / Fold change vs veh, TP53 / RFU, TNKS2 / Fold change vs veh, TNKS2 / RFU, ZFP14 / Fold change vs veh, ZFP14 / RFU, ACTR2 / Fold change vs veh, ACTR2 / RFU, PPP3R1 / Fold change vs veh, PPP3R1 / RFU, PIK3R1 / Fold change vs veh, PIK3R1 / RFU, HNRNPA1 / Fold change vs veh, HNRNPA1 / RFU, RNF170 / Fold change vs veh, RNF170 / RFU, ZNF28 / Fold change vs veh, ZNF28 / RFU, RNGTT / Fold change vs veh, RNGTT / RFU, OGT / Fold change vs veh, OGT / RFU, BRD1 / Fold change vs veh, BRD1 / RFU, MARS / Fold change vs veh, MARS / RFU, ZNF655 / Fold change vs veh, ZNF655 / RFU, FAHD1 / Fold change vs veh, FAHD1 / RFU, BDP1 / Fold change vs veh, BDP1 / RFU, LRRCC1 / Fold change vs veh, LRRCC1 / RFU, ARID1A / Fold change vs veh, ARID1A / RFU, ZNF146 / Fold change vs veh, ZNF146 / RFU, ZNF330 / Fold change vs veh, ZNF330 / RFU, GPN3 / Fold change vs veh, GPN3 / RFU, C9orf123 / Fold change vs veh, C9orf123 / RFU, N4BP2L2 / Fold change vs veh, N4BP2L2 / RFU, ARFIP1 / Fold change vs veh, ARFIP1 / RFU, FAM179B / Fold change vs veh, FAM179B / RFU, BCL10 / Fold change vs veh, BCL10 / RFU, UHRF1BP1L / Fold change vs veh, UHRF1BP1L / RFU, BET1 / Fold change vs veh, BET1 / RFU, CNOT2 / Fold change vs veh, CNOT2 / RFU, ZNF268 / Fold change vs veh, ZNF268 / Fold change vs veh, ZNF507 / RFU, DGCR2 / Fold change vs veh, DGCR2 / RFU, WDSUB1 / Fold change vs veh, WDSUB1 / Fold change vs veh, HSP90B1 /// MIR3652 / RFU, ADSS / Fold change vs veh, ADSS / RFU, GK / Fold change vs veh, GK / RFU, ZNF148 / Fold change vs veh, ZNF148 / RFU, TAF9 / Fold change vs veh, TAF9 / RFU, SLC1A5 / Fold change vs veh, SLC1A5 / RFU, SLMO2 / Fold change vs veh, SLMO2 / RFU, ABCC4 / Fold change vs veh, ABCC4 / RFU, LOC101060439 /// RAP1B / Fold change vs veh, LOC101060439 /// RAP1B / RFU, RFX7 / Fold change vs veh, RFX7 / RFU, GTPBP10 / Fold change vs veh, GTPBP10 / RFU, CNEP1R1 / Fold change vs veh, CNEP1R1 / RFU, BIVM-ERCC5 /// ERCC5 / Fold change vs veh, BIVM-ERCC5 /// ERCC5 / RFU, ILF3 / Fold change vs veh, ILF3 / RFU 11762660_at / Fold change /veh 11762660_at / RFU VCAN (11757783_s_at) / Fold change /veh VCAN (11757783_s_at) / RFU DDX43 (11728927_at) / Fold change /veh DDX43 (11728927_at) / RFU KRT8 (11758188_x_at) / Fold change /veh KRT8 (11758188_x_at) / RFU NKD1 (11759106_at) / Fold change /veh NKD1 (11759106_at) / RFU SRD5A1 (11742802_a_at) / Fold change /veh SRD5A1 (11742802_a_at) / RFU TPSAB1 /// TPSB2 (11721975_s_at) / Fold change /veh TPSAB1 /// TPSB2 (11721975_s_at) / RFU GSTM3 (11746129_a_at) / Fold change /veh GSTM3 (11746129_a_at) / RFU IL23R (11737362_x_at) / Fold change /veh IL23R (11737362_x_at) / RFU TMEM51 (11727254_a_at) / Fold change /veh TMEM51 (11727254_a_at) / RFU PIWIL2 (11732686_x_at) / Fold change /veh PIWIL2 (11732686_x_at) / RFU ORM1 (11744905_x_at) / Fold change /veh ORM1 (11744905_x_at) / RFU CCDC152 (11743942_at) / Fold change /veh CCDC152 (11743942_at) / RFU ECM1 (11717891_a_at) / Fold change /veh ECM1 (11717891_a_at) / RFU IL23R (11748794_a_at) / Fold change /veh IL23R (11748794_a_at) / RFU TNFAIP8L3 (11732012_x_at) / Fold change /veh TNFAIP8L3 (11732012_x_at) / RFU MBOAT4 (11741988_at) / Fold change /veh MBOAT4 (11741988_at) / RFU 11764193_at / Fold change /veh 11764193_at / RFU TMEM53 (11763286_at) / Fold change /veh TMEM53 (11763286_at) / RFU MAGEB2 (11727129_at) / Fold change /veh MAGEB2 (11727129_at) / RFU TMEM200A (11744735_a_at) / Fold change /veh TMEM200A (11744735_a_at) / RFU CCDC152 (11751479_a_at) / Fold change /veh CCDC152 (11751479_a_at) / RFU FAM211A (11726209_a_at) / Fold change /veh FAM211A (11726209_a_at) / RFU RGS16 (11746705_a_at) / Fold change /veh RGS16 (11746705_a_at) / RFU VCAN (11755009_s_at) / Fold change /veh VCAN (11755009_s_at) / RFU RHOB (11743442_s_at) / Fold change /veh RHOB (11743442_s_at) / RFU RGS16 (11720943_a_at) / Fold change /veh RGS16 (11720943_a_at) / RFU RGS16 (11720944_at) / Fold change /veh RGS16 (11720944_at) / RFU, VPS4B / Fold change vs veh, VPS4B / RFU, CREB1 / Fold change vs veh, CREB1 / RFU, DNAJC13 / Fold change vs veh, DNAJC13 / RFU, GNAQ / Fold change vs veh, GNAQ / RFU, CDK5R1 / Fold change vs veh, CDK5R1 / RFU, ZRANB3 / Fold change vs veh, ZRANB3 / RFU, CUL4A / Fold change vs veh, CUL4A / RFU, CCNY / Fold change vs veh, CCNY / RFU, UFL1 / Fold change vs veh, UFL1 / RFU, COG3 / Fold change vs veh, COG3 / RFU, DIAPH2 / Fold change vs veh, DIAPH2 / RFU, SKA2 / Fold change vs veh, SKA2 / RFU, AFF3 / Fold change vs veh, AFF3 / RFU, LMF1 / Fold change vs veh, LMF1 / RFU, IPO11 / Fold change vs veh, IPO11 / RFU, DFFB / Fold change vs veh, DFFB / RFU, FOXP1 / Fold change vs veh, FOXP1 / RFU, CARD8 / Fold change vs veh, CARD8 / RFU, STRN3 / Fold change vs veh, STRN3 / RFU, ADK / Fold change vs veh, ADK / RFU, RASSF2 / Fold change vs veh, RASSF2 / RFU, WIPF1 / Fold change vs veh, WIPF1 / RFU, LARP1B / Fold change vs veh, LARP1B / RFU, RASA1 / Fold change vs veh, RASA1 / RFU, RB1 / Fold change vs veh, RB1 / RFU, PPFIA1 / Fold change vs veh, PPFIA1 / RFU, MAT2A / Fold change vs veh, MAT2A / RFU, CCT5 / Fold change vs veh, CCT5 / RFU, WDR92 / Fold change vs veh, WDR92 / RFU, CUX1 / Fold change vs veh, CUX1 / RFU, TTC7A / Fold change vs veh, TTC7A / RFU, TMEM135 / Fold change vs veh, TMEM135 / RFU, DEPTOR / Fold change vs veh, DEPTOR / RFU, CPM / Fold change vs veh, CPM / RFU, DNAJB6 / Fold change vs veh, DNAJB6 / RFU, CACNA2D3 / Fold change vs veh, CACNA2D3 / RFU, DTX4 / Fold change vs veh, DTX4 / RFU, TFCP2 / Fold change vs veh, TFCP2 / RFU, GMCL1 /// GMCL1P1 / Fold change vs veh, GMCL1 /// GMCL1P1 / RFU, AEBP2 / Fold change vs veh, AEBP2 / RFU, SNHG1 /// SNORD22 /// SNORD25 /// SNORD26 /// SNORD27 /// SNORD28 /// SNORD29 /// SNORD31 / Fold change vs veh, SNHG1 /// SNORD22 /// SNORD25 /// SNORD26 /// SNORD27 /// SNORD28 /// SNORD29 /// SNORD31 / Fold change (Aza/veh), C12orf56 (ProbeSet 11735607_a_at) / Fold change (ACY-1035/veh), C12orf56 (ProbeSet 11735607_a_at) / Fold change (Aza/veh), FGFR1OP (ProbeSet 11751329_s_at) / Fold change (ACY-1035/veh), FGFR1OP (ProbeSet 11751329_s_at) / Fold change (Aza/veh), VPS36 (ProbeSet 11739960_a_at) / Fold change (ACY-1035/veh), VPS36 (ProbeSet 11739960_a_at) / RFU SYPL1 (11715823_x_at) / Fold change /veh SYPL1 (11715823_x_at) / RFU IGFBP7 (11715501_s_at) / Fold change /veh IGFBP7 (11715501_s_at) / RFU REEP3 (11722064_at) / Fold change /veh REEP3 (11722064_at) / RFU IGLL1 (11728026_x_at) / Fold change /veh IGLL1 (11728026_x_at): dose or concentration left out as unconfirmed
Conditions: ProbeSet 11722463_a_at; LIST B

SMILES: Nc1ncn([C@@H]2O[C@H](CO)[C@@H](O)[C@H]2O)c(=O)n1 [azacitidine]
- RFU, TNKS2: 47.93 RFU
